The values that follow come from patent US10077261B2, “Imidazolin-5-one derivative useful as FASN inhibitors for the treatment of cancer” (Janssen Pharmaceutica NV, priority 2012, dated 2018).

Structures are written as SMILES.

One may read the inhibition as the change of the read-out against control, counted positive when it falls.

Assay [1] concerns PC-3M-Luc-C6 prostate cells. Description: In vitro PC-3M-Luc-C6 prostate cell proliferation assay in lipid reduced medium. Format: cell-based. Conditions: 96 h, read-out: pIC50 PC-3M-Luc-C6 prostate cell (converted).
The target in assay [2] is T1, hFASN enzyme (full length) (Homo sapiens, UniProt P49327).
T1 construct: 10 μL hFASN enzyme (full length, 300 ng, purified in house); made in house
Kind of assay: Fatty Acid Synthase (FASN) inhibition scintillation proximity assay. Conditions: for inhibition at 10 µM: read-out: Human FASN % inhibition @ 10 μM, 10 μM test compound; for IC50: read-out: Human FASN pIC50 (converted). Format: biochemical. The procedure, abridged: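 Purified full-length hFASN (300 ng) converts ^3H-acetyl-CoA plus malonyl-CoA to ^3H-palmitate in 100 mM KH2PO4 pH 7.5, 1 mM DTT; compounds tested at 0.01–30 μM. Product captured on streptavidin imaging beads and read by LEADseeker at 610 nm after ≥24 h; 4-parameter logistic fit versus controls.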
In general terms: Scintillation proximity formats need no separation of bound from free tracer.

Assay [3] has as its system A2780 ovarian cells. Kind of assay: A2780 ovarian cell proliferation assay in lipid reduced medium, with palmitate (MTT). Format: cell-based. Conditions: Homo sapiens, A2780, 96 h; read-out: pIC50 A2780 Ovarian Cell, With Palmitate (converted). The method in brief: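 Seeded cells were switched next day to lipid-reduced serum, exposed to compound and 25 μM palmitate complexed with fatty-acid-free BSA, and incubated 96 h. Proliferation was then determined by MTT absorbance at 544 nm, with a best-fit curve of signal against concentration.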

The subject of assay [4] is LNCaP-Vancouver prostate cells. Description: In vitro LNCaP Vancouver prostate cell proliferation assay in lipid reduced medium. Format: cell-based. Conditions: read-out: pIC50 LNCaP_Vancouver prostate cell (converted).
Assay [5] concerns A2780 ovarian cells. Kind of assay: A2780 ovarian cell proliferation assay in lipid reduced medium, without palmitate (MTT). Format: cell-based. Conditions: Homo sapiens, A2780, 96 h; read-out: pIC50 A2780 Ovarian Cell, Without Palmitate (converted).
Assay [6] has as its target Fatty Acid Synthase Keto-reductase Domain (FASN KR) (Homo sapiens, UniProt P49327). Description: Fatty Acid Synthase keto-reductase domain (FASN KR) inhibition, NADPH oxidation at 340 nm.
Method: After 20 minutes incubation at room temperature the plate was measured again (T2).
The decrease in absorbance was calculated as (Absorbance before incubation T1)−(Absorbance following incubation T2).
A plot of Controlmin versus test compound concentration was fitted to a 4-parameter logistic curve using a non-linear least squares regression method.

Fatty Acid Synthase Keto-reductase Domain (FASN KR), sequence (P49327 whole entry, the tested form may be a part): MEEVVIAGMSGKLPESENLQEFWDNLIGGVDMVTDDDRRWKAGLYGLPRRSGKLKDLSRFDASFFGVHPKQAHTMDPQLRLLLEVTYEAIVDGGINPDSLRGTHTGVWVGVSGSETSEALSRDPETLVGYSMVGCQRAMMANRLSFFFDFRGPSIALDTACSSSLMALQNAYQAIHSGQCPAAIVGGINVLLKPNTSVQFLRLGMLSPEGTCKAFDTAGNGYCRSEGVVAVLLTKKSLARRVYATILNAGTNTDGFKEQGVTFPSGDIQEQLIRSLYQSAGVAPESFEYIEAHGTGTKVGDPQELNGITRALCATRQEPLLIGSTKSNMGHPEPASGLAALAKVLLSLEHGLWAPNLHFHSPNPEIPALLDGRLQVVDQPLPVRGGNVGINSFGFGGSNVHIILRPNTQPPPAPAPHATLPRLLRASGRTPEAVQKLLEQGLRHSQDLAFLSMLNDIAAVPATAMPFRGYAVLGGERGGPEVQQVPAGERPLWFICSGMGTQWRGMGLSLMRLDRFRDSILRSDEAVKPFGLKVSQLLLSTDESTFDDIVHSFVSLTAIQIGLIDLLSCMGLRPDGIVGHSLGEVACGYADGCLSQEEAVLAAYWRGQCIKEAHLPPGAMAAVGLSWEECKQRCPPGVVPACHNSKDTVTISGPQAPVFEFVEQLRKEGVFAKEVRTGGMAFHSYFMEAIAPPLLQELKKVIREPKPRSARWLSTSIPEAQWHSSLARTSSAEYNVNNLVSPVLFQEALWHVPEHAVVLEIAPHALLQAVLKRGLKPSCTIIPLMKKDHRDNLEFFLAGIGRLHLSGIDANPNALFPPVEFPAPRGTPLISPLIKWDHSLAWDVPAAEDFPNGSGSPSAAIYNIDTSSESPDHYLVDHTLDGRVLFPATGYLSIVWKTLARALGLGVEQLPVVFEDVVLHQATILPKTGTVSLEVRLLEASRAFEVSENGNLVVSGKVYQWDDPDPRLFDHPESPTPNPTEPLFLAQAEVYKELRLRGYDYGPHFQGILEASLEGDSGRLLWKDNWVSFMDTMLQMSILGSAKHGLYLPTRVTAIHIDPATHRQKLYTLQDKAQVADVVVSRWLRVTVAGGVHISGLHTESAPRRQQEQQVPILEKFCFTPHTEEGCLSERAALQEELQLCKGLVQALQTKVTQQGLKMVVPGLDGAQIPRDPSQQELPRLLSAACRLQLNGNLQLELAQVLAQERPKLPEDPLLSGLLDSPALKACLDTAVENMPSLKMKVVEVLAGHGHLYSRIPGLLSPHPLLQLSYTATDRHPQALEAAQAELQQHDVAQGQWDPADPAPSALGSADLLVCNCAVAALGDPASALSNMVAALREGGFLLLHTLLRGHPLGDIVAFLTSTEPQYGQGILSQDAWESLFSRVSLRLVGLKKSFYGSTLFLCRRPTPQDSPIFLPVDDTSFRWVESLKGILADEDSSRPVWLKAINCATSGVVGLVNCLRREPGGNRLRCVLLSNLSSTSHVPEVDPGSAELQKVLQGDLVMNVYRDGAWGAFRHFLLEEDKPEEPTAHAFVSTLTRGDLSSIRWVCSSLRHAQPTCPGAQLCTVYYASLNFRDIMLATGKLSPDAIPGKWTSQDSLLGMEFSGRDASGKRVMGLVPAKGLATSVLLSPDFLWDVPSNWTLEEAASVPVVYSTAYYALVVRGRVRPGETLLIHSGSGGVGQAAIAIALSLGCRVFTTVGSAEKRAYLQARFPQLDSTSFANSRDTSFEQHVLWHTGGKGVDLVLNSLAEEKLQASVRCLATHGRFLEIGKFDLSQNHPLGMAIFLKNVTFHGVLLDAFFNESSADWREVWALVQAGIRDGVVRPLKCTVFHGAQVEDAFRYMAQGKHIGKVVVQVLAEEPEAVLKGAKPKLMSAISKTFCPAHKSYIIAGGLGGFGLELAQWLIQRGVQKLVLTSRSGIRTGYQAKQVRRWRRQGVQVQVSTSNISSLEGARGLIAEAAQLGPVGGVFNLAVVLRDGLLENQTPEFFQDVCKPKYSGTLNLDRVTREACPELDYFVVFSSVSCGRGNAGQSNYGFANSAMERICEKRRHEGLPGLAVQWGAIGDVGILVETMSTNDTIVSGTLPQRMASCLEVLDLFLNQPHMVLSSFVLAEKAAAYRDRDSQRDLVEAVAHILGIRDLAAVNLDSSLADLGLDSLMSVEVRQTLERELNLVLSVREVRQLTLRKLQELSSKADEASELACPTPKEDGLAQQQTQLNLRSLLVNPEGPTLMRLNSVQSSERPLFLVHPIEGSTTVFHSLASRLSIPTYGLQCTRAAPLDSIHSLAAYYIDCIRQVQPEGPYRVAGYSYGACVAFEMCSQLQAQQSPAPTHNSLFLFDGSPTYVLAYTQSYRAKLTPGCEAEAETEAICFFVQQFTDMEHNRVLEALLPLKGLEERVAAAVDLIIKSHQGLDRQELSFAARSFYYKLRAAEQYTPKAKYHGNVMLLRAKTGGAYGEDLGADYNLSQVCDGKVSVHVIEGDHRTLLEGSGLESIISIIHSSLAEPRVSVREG
T1 sequence (P49327 whole entry): as the sequence (P49327 whole entry, the tested form may be a part) above

In the case of `Cn1cc(-c2ccc(-c3ccc(C4=NC5(CC5)C(=O)N4C[C@@H]4CCN(C(=O)C5CC5)C4)cc3)cc2)cn1` [compound 65, (R)-6-((1-(Cyclopropanecarbonyl)pyrrolidin-3-yl)methyl)-5-(4′-(methyl-1H-pyrazol-4-yl)-[1,1′-biphenyl]-4-yl)-4,6-diazaspiro[2.4]hept-4-en-7-one], the IC50 in assay [1] was ~24.5 nM; in the assay on A2780 ovarian cells [3] it was > 10 µM; in assay [4], 66.1 nM; with A2780 ovarian cells [5], ~13.2 nM. Also, the “Human FASN pIC50” value in assay [2] (hFASN enzyme full length, scintillation proximity assay, "~" = standard error of pIC50 larger than 0.5) is reported as 7.55. Besides, the inhibition at 10 µM in assay [2] stood at 101%. Moreover, the “FASN Keto-reductase Domain pIC50” value in assay [6] (NADPH oxidation, absorbance at 340 nm, ethyl acetoacetate substrate) worked out at 7.27.

`Cn1ncc2cc(-c3ccc(C4=NC5(CC5)C(=O)N4C[C@@H]4CCN(C(=O)C5(O)CC5)C4)cc3)ccc21` [compound 200]: the IC50 in assay [1] was 6.46 nM; in assay [2], 34.7 nM; with A2780 ovarian cells [3] it was > 10 µM; in assay [4], ~33.9 nM; in the assay on A2780 ovarian cells [5], ~3.89 nM; in assay [6], 34.7 nM. Further, the inhibition at 10 µM in assay [2] is 102%.

In the case of `Cn1ncc2cc(-c3ccc(C4=NC5(CC5)C(=O)N4C[C@@H]4CCN(C(=O)C5(C)CC5)C4)cc3)ccc21` [compound 201, (R)-5-(4-(1-methyl-1H-indazol-5-yl)phenyl)-6-((1-(1-methylcyclopropanecarbonyl)pyrrolidin-3-yl)methyl)-4,6-diazaspiro[2.4]hept-4-en-7-one], the IC50 in assay [1] is ~6.61 nM; in assay [2], 43.7 nM; with A2780 ovarian cells [3] it was ~3.47 µM; in assay [4], 20.9 nM; with A2780 ovarian cells [5], ~4.37 nM; in assay [6] it was 33.9 nM. Besides, in assay [2], the inhibition at 10 µM came out at 100%.

`O=C(N1CC[C@@H](CN2C(=O)C3(CC3)N=C2c2ccc(-c3ccc(Cl)cc3F)cc2)C1)C1(O)CC1` [compound 202, (R)-5-(4′-chloro-2′-fluoro[1,1′-biphenyl]-4-yl)-6-((1-(1-hydroxycyclopropanecarbonyl)pyrrolidin-3-yl)methyl)-4,6-diazaspiro[2.4]hept-4-en-7-one]: the IC50 in assay [1] is ~95.5 nM; in assay [2], 83.2 nM; with A2780 ovarian cells [3] it was > 10 µM; in assay [4], 550 nM; in the assay with A2780 ovarian cells [5], 58.9 nM; in assay [6], 74.1 nM. For the same compound, the inhibition at 10 µM in assay [2] stood at 101%.

On to `COc1ccc2cc(-c3ccc(C4=NC5(CC5)C(=O)N4C[C@@H]4CCN(C(=O)C5(O)CC5)C4)cc3)ccc2c1` [compound 203, (R)-6-((1-(1-hydroxycyclopropanecarbonyl)pyrrolidin-3-yl)methyl)-5-(4-(6-methoxynaphthalen-2-yl)phenyl)-4,6-diazaspiro[2.4]hept-4-en-7-one], for which the IC50 in assay [1] was 5.62 nM; in assay [2], 57.5 nM; with A2780 ovarian cells [3] it was > 10 µM; in assay [4], 21.4 nM; in the assay with A2780 ovarian cells [5], ~4.57 nM; in assay [6], 46.8 nM. Moreover, the inhibition at 10 µM in assay [2] was found to be 99%.

Turning to `Cc1cc(-c2ccc3c(cnn3C)c2)ccc1C1=NC2(CC2)C(=O)N1CC1CN(C(=O)C2CCCO2)C1` (centres unmarked) [compound 205, 5-(2-methyl-4-(1-methyl-1H-indazol-5-yl)phenyl)-6-((1-(tetrahytdro-furan-2-carbonyl)azetidin-3-yl)methyl)-4,6-diazaspiro[2.4]hept-4-en-7-one], the IC50 was 53.7 nM in assay [1]; 97.7 nM in assay [2]; > 10 µM in the assay with A2780 ovarian cells [3]; 102 nM in assay [4]; 36.3 nM with A2780 ovarian cells [5]; 115 nM in assay [6]. The inhibition at 10 µM in assay [2] was 94%.

On to `Cc1cc(-c2ccc3c(cnn3C)c2)ccc1C1=NC2(CC2)C(=O)N1CC1CN(C(=O)C2(C)CCC2)C1` [compound 208, 5-(2-methyl-4-(1-methyl-1H-indazol-5-yl)phenyl)-6-((1-(1-methylcyclobutanecarbonyl)azetidin-3-yl)methyl)-4,6-diazaspiro[2.4]hept-4-en-7-one], for which the IC50 in assay [1] was 43.7 nM; in assay [2] it was 64.6 nM; with A2780 ovarian cells [3], 6.03 µM; in assay [4] it was 117 nM; with A2780 ovarian cells [5], ~72.4 nM; in assay [6], 105 nM. Moreover, in assay [2], the inhibition at 10 µM worked out at 99%.

In the case of `O=C(C1CC1)N1CC[C@@H](CN2C(=O)C3(CC3)N=C2c2ccc(-c3ccc(F)c(Cl)c3)cc2)C1` [compound 209, (R)-5-(3-chloro-4-fluoro-[1,1-biphenyl]-4-yl)-6-((1-(cyclopropanecarbonyl)pyrrolidin-3-yl)methyl)-4,6-diazaspiro[2.4]hept-4-en-7-one], the IC50 was ~776 nM in assay [1]; 89.1 nM in assay [2]; > 10 µM with A2780 ovarian cells [3]; 4170 nM in assay [4]; 1860 nM in the assay with A2780 ovarian cells [5]; 257 nM in assay [6]. For the same compound, the inhibition at 10 µM in assay [2] was 108%.

On to `N#CCc1c[nH]c2ccc(-c3ccc(C4=NC5(CC5)C(=O)N4C[C@@H]4CCN(C(=O)C5CC5)C4)cc3)cc12` [compound 212, (R)-2-(5-(4-(6-((1-(cyclopropanecarbonyl)pyrrolidin-3-yl)methyl)-7-oxo-4,6-diazaspiro[2.4]hept-4-en-5-yl)phenyl)-1H-indole-3-yl)acetonitrile], for which the IC50 in assay [1] was 18.2 nM; in assay [2], 28.2 nM; with A2780 ovarian cells [3] it was > 10 µM; in assay [4], 110 nM; in the assay with A2780 ovarian cells [5], 7.24 nM; in assay [6], 37.2 nM. Moreover, the inhibition at 10 µM in assay [2] was found to be 101%.

With `Cc1[nH]c2ccc(-c3ccc(C4=NC5(CC5)C(=O)N4C[C@@H]4CCN(C(=O)C5CC5)C4)cc3)cc2c1C` [compound 213, (R)-6-((1-(cyclopropanecarbonyl)pyrrolidin-3-yl)methyl)-5-(4-(2,3-dimethyl-1H-indol-5-yl)phenyl)-4,6-diazaspiro[2.4]hept-4-en-7-one], the IC50 is ~112 nM in assay [1]; 46.8 nM in assay [2]; > 10 µM with A2780 ovarian cells [3]; 355 nM in assay [4]; 115 nM with A2780 ovarian cells [5]; 75.9 nM in assay [6]. Further, the inhibition at 10 µM in assay [2] is 95%.

Turning to `Cc1cc2cc(-c3ccc(C4=NC5(CC5)C(=O)N4C[C@@H]4CCN(C(=O)C5CC5)C4)cc3)ccc2[nH]1` [compound 214, (R)-6-((1-(cyclopropanecarbonyl)pyrrolidin-3-yl)methyl)-5-(4-(2-methyl-1H-indol-5-yl)phenyl)-4,6-diazaspiro[2.4]hept-4-en-7-one], the IC50 in assay [1] was 66.1 nM; in assay [2], 22.4 nM; in the assay with A2780 ovarian cells [3] it was > 10 µM; in assay [4], 363 nM; in the assay with A2780 ovarian cells [5] it was ~64.6 nM; in assay [6] it was 81.3 nM. Further, the inhibition at 10 µM in assay [2] was 99%.

Turning to `Cn1ccc2cc(-c3ccc(C4=NC5(CC5)C(=O)N4C[C@@H]4CCN(C(=O)C5CC5)C4)cc3)ccc21` [compound 215, (R)-6-((1-(cyclopropanecarbonyl)pyrrolidin-3-yl)methyl)-5-(4-(1-methyl-1H-indol-5-yl)phenyl)-4,6-diazaspiro[2.4]hept-4-en-7-one], the IC50 is 15.8 nM in assay [1]; 23.4 nM in assay [2]; > 10 µM in the assay on A2780 ovarian cells [3]; 70.8 nM in assay [4]; 20.4 nM in the assay with A2780 ovarian cells [5]; 24.5 nM in assay [6]. The inhibition at 10 µM in assay [2] worked out at 102%.

`O=C(C1CC1)N1CC[C@@H](CN2C(=O)C3(CC3)N=C2c2ccc(-c3ccc4[nH]c(CO)cc4c3)cc2)C1` [compound 216, (R)-6-((1-(cyclopropanecarbonyl)pyrrolidin-3-yl)methyl)-5-(4-(2-(hydroxymethyl)-1H-indol-5-yl)phenyl)-4,6-diazaspiro[2.4]hept-4-enn-7-one]: the IC50 was ~53.7 nM in assay [1]; 28.8 nM in assay [2]; > 10 µM in the assay with A2780 ovarian cells [3]; 162 nM in assay [4]; 63.1 nM in the assay with A2780 ovarian cells [5]; 49 nM in assay [6]. Besides, the inhibition at 10 µM in assay [2] was determined as 102%.

As for `O=C(C1CC1)N1CC[C@@H](CN2C(=O)C3(CC3)N=C2c2ccc(-c3ccc4[nH]cc(CCO)c4c3)cc2)C1` [compound 217, (R)-6-((1-(cyclopropanecarbonyl)pyrrolidin-3-yl)methyl)-5-(4-(3-(2-hydroxyethyl)-1H-indol-5-yl)phenyl)-4,6-diazaspiro[2.4]hept-4-en-7-one], the IC50 in assay [1] is 50.1 nM; in assay [2], 28.8 nM; in the assay on A2780 ovarian cells [3], > 10 µM; in assay [4] it was 178 nM; in the assay on A2780 ovarian cells [5], 30.2 nM; in assay [6], 49 nM. Further, in assay [2], the inhibition at 10 µM worked out at 103%.
